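Exposure lasted 48 hours, with cells grown in 96-well plates and compounds tested at five concentrations. The concentration for 50% growth inhibition is given as GI50.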 Calls of active or inactive are those of the source. Rule as the data show it: active = GI50 up to about 1.1 µM and inactive = higher.
Experiments:
Assay in all cases: NCI-60 cell line screen, 48 h
LOX IMVI = system: LOX IMVI
SF-539 = system: SF-539
UACC-257 = system: UACC-257
DU-145 = system: DU-145
SNB-75 = system: SNB-75
Malme-3M = system: Malme-3M
HCT-116 = system: HCT-116
A549 = system: A549
CAKI-1 = system: CAKI-1
BT-549 = system: BT-549
OVCAR-5 = system: OVCAR-5
SNB-19 = system: SNB-19
KM12 = system: KM12
SF-268 = system: SF-268
OVCAR-8 = system: OVCAR-8
T47D = system: T47D
NCI-H23 = system: NCI-H23
M14 = system: M14
OVCAR-4 = system: OVCAR-4
TK-10 = system: TK-10
HCT-15 = system: HCT-15
K562 = system: K562
HCC 2998 = system: HCC 2998
ACHN = system: ACHN
SR = system: SR
OVCAR-3 = system: OVCAR-3
RPMI-8226 = system: RPMI-8226
Hs-578T = system: Hs-578T
SF-295 = system: SF-295
HOP-92 = system: HOP-92
NCI-H522 = system: NCI-H522
UO-31 = system: UO-31
SK-MEL-28 = system: SK-MEL-28
SN12C = system: SN12C
786-0 = system: 786-0
MDA-MB-231 = system: MDA-MB-231
A498 = system: A498
UACC-62 = system: UACC-62
NCI/ADR-RES = system: NCI/ADR-RES
COLO 205 = system: COLO 205
MDA-MB-435 = system: MDA-MB-435
NCI-H460 = system: NCI-H460
IGROV-1 = system: IGROV-1
MOLT-4 = system: MOLT-4
SW-620 = system: SW-620
MCF7 = system: MCF7
SK-OV-3 = system: SK-OV-3
CCRF-CEM = system: CCRF-CEM
EKVX = system: EKVX
SK-MEL-2 = system: SK-MEL-2
HL-60 = system: HL-60
MDA-N = system: MDA-N
U-251 = system: U-251
SK-MEL-5 = system: SK-MEL-5
HOP-62 = system: HOP-62
NCI-H226 = system: NCI-H226
RXF 393 = system: RXF 393
HT-29 = system: HT-29
PC-3 = system: PC-3

## COC(=O)CCCC(=O)NC1=C(Nc2ccc(OC)cc2)C(=O)c2ccccc2C1=O
LOX IMVI
  GI50: 25.9 µM (inactive)
SF-539
  GI50: 19.3 µM (inactive)
UACC-257
  GI50: 18.1 µM (inactive)
DU-145
  GI50: 16.3 µM (inactive)
SNB-75
  GI50: 32.2 µM (inactive)
Malme-3M
  GI50: 3.4 µM (inactive)
HCT-116
  GI50: 19.7 µM (inactive)
A549
  GI50: 22.3 µM (inactive)
CAKI-1
  GI50: 43.2 µM (inactive)
BT-549
  GI50: 19.5 µM (inactive)
OVCAR-5
  GI50: 18.8 µM (inactive)
SNB-19
  GI50: 42.7 µM (inactive)
KM12
  GI50: 28.8 µM (inactive)
SF-268
  GI50: 45.6 µM (inactive)
OVCAR-8
  GI50: 31 µM (inactive)
T47D
  GI50: 41.3 µM (inactive)
NCI-H23
  GI50: 20.4 µM (inactive)
M14
  GI50: 19.4 µM (inactive)
OVCAR-4
  GI50: 17.8 µM (inactive)
TK-10
  GI50: > 100 µM (inactive)
HCT-15
  GI50: 23.8 µM
K562
  GI50: 23.9 µM (inactive)
HCC 2998
  GI50: 20.6 µM (inactive)
ACHN
  GI50: 28 µM (inactive)
SR
  GI50: 33.1 µM (inactive)
OVCAR-3
  GI50: 6.25 µM (inactive)
RPMI-8226
  GI50: 26.4 µM (inactive)
Hs-578T
  GI50: 22.8 µM (inactive)
SF-295
  GI50: 30.4 µM (inactive)
HOP-92
  GI50: 71 µM (inactive)
NCI-H522
  GI50: 37.5 µM (inactive)
UO-31
  GI50: 46.2 µM (inactive)
SK-MEL-28
  GI50: 20.9 µM (inactive)
SN12C
  GI50: 27.7 µM (inactive)
786-0
  GI50: 34.6 µM (inactive)
MDA-MB-231
  GI50: 30.1 µM (inactive)
A498
  GI50: 20.7 µM (inactive)
UACC-62
  GI50: 12.8 µM (inactive)
NCI/ADR-RES
  GI50: 21.9 µM (inactive)
COLO 205
  GI50: 25.4 µM (inactive)
MDA-MB-435
  GI50: 18.2 µM (inactive)
NCI-H460
  GI50: 15.9 µM (inactive)
IGROV-1
  GI50: 18 µM (inactive)
MOLT-4
  GI50: 24.8 µM (inactive)
SW-620
  GI50: 40.7 µM (inactive)
MCF7
  GI50: 17.1 µM (inactive)
SK-OV-3
  GI50: 34.1 µM (inactive)
CCRF-CEM
  GI50: 20.8 µM (inactive)
EKVX
  GI50: 21.9 µM (inactive)
SK-MEL-2
  GI50: 17.9 µM (inactive)
HL-60
  GI50: 21.7 µM (inactive)
MDA-N
  GI50: 20.7 µM (inactive)
U-251
  GI50: 31.4 µM (inactive)

## CCN(CC)C(=S)SS(=O)(=O)c1ccc(C)cc1
LOX IMVI
  GI50: 17.4 µM (inactive)
SF-539
  GI50: 16.9 µM (inactive)
UACC-257
  GI50: 19.2 µM (inactive)
DU-145
  GI50: 42.6 µM (inactive)
Malme-3M
  GI50: 20.4 µM (inactive)
SK-MEL-5
  GI50: 0.644 µM (active)
CAKI-1
  GI50: 17.7 µM (inactive)
BT-549
  GI50: 28.7 µM (inactive)
HOP-62
  GI50: 23.2 µM (inactive)
OVCAR-5
  GI50: > 100 µM (inactive)
SNB-19
  GI50: 61.1 µM (inactive)
KM12
  GI50: 14.2 µM (inactive)
SF-268
  GI50: 55.2 µM (inactive)
OVCAR-8
  GI50: 19.5 µM (inactive)
T47D
  GI50: 59.7 µM (inactive)
NCI-H23
  GI50: 42.4 µM (inactive)
M14
  GI50: 13.9 µM (inactive)
OVCAR-4
  GI50: 43.2 µM (inactive)
TK-10
  GI50: > 100 µM (inactive)
HCT-15
  GI50: 36.7 µM
K562
  GI50: 28.5 µM (inactive)
HCC 2998
  GI50: 36.9 µM (inactive)
ACHN
  GI50: 34.7 µM (inactive)
OVCAR-3
  GI50: 39.6 µM (inactive)
NCI-H226
  GI50: 52 µM (inactive)
Hs-578T
  GI50: 75.5 µM (inactive)
SF-295
  GI50: 52.7 µM (inactive)
RXF 393
  GI50: 16.8 µM (inactive)
NCI-H522
  GI50: < 0.01 µM (active)
UO-31
  GI50: 20.7 µM (inactive)
SK-MEL-28
  GI50: 18.5 µM (inactive)
SN12C
  GI50: 17.5 µM (inactive)
786-0
  GI50: 20.3 µM (inactive)
MDA-MB-231
  GI50: 35.7 µM (inactive)
A498
  GI50: > 100 µM (inactive)
UACC-62
  GI50: 16.2 µM (inactive)
NCI/ADR-RES
  GI50: 35.6 µM (inactive)
COLO 205
  GI50: 22.3 µM (inactive)
MDA-MB-435
  GI50: 31.5 µM (inactive)
NCI-H460
  GI50: 27.2 µM (inactive)
SW-620
  GI50: 19.9 µM (inactive)
SK-OV-3
  GI50: > 100 µM (inactive)
CCRF-CEM
  GI50: < 0.01 µM (active)
HT-29
  GI50: 13.2 µM (inactive)
EKVX
  GI50: > 100 µM (inactive)
SK-MEL-2
  GI50: 50.4 µM (inactive)
MDA-N
  GI50: 27.9 µM (inactive)
U-251
  GI50: 23.3 µM (inactive)

## COC(=O)/C(=C(/C)c1ccco1)P(=O)(OC)OC
LOX IMVI
  GI50: > 100 µM (inactive)
SF-539
  GI50: > 100 µM (inactive)
UACC-257
  GI50: > 100 µM (inactive)
DU-145
  GI50: > 100 µM (inactive)
SNB-75
  GI50: > 100 µM (inactive)
Malme-3M
  GI50: > 100 µM (inactive)
HCT-116
  GI50: > 100 µM (inactive)
A549
  GI50: > 100 µM (inactive)
SK-MEL-5
  GI50: > 100 µM (inactive)
CAKI-1
  GI50: > 100 µM (inactive)
BT-549
  GI50: > 100 µM (inactive)
HOP-62
  GI50: > 100 µM (inactive)
OVCAR-5
  GI50: > 100 µM (inactive)
SNB-19
  GI50: > 100 µM (inactive)
KM12
  GI50: > 100 µM (inactive)
SF-268
  GI50: > 100 µM (inactive)
OVCAR-8
  GI50: > 100 µM (inactive)
T47D
  GI50: > 100 µM (inactive)
NCI-H23
  GI50: > 100 µM (inactive)
M14
  GI50: > 100 µM (inactive)
OVCAR-4
  GI50: > 100 µM (inactive)
TK-10
  GI50: > 100 µM (inactive)
HCT-15
  GI50: > 100 µM
HCC 2998
  GI50: > 100 µM (inactive)
ACHN
  GI50: > 100 µM (inactive)
SR
  GI50: > 100 µM (inactive)
OVCAR-3
  GI50: > 100 µM (inactive)
NCI-H226
  GI50: > 100 µM (inactive)
RPMI-8226
  GI50: > 100 µM (inactive)
Hs-578T
  GI50: > 100 µM (inactive)
SF-295
  GI50: > 100 µM (inactive)
HOP-92
  GI50: > 100 µM (inactive)
RXF 393
  GI50: > 100 µM (inactive)
NCI-H522
  GI50: > 100 µM (inactive)
UO-31
  GI50: 0.01 µM (active)
SK-MEL-28
  GI50: > 100 µM (inactive)
SN12C
  GI50: > 100 µM (inactive)
786-0
  GI50: > 100 µM (inactive)
MDA-MB-231
  GI50: > 100 µM (inactive)
A498
  GI50: > 100 µM (inactive)
UACC-62
  GI50: > 100 µM (inactive)
NCI/ADR-RES
  GI50: > 100 µM (inactive)
COLO 205
  GI50: > 100 µM (inactive)
MDA-MB-435
  GI50: > 100 µM (inactive)
IGROV-1
  GI50: > 100 µM (inactive)
MOLT-4
  GI50: > 100 µM (inactive)
PC-3
  GI50: > 100 µM (inactive)
SW-620
  GI50: > 100 µM (inactive)
MCF7
  GI50: > 100 µM (inactive)
SK-OV-3
  GI50: > 100 µM (inactive)
CCRF-CEM
  GI50: > 100 µM (inactive)
HT-29
  GI50: > 100 µM (inactive)
EKVX
  GI50: > 100 µM (inactive)
SK-MEL-2
  GI50: > 100 µM (inactive)
U-251
  GI50: > 100 µM (inactive)

— ChEMBL document CHEMBL1201862, “PubChem BioAssay data set” (2004)
